One data set has as its target T1, hPEPT2 (Homo sapiens, UniProt Q16348).
T1 sequence (Q16348 1-729): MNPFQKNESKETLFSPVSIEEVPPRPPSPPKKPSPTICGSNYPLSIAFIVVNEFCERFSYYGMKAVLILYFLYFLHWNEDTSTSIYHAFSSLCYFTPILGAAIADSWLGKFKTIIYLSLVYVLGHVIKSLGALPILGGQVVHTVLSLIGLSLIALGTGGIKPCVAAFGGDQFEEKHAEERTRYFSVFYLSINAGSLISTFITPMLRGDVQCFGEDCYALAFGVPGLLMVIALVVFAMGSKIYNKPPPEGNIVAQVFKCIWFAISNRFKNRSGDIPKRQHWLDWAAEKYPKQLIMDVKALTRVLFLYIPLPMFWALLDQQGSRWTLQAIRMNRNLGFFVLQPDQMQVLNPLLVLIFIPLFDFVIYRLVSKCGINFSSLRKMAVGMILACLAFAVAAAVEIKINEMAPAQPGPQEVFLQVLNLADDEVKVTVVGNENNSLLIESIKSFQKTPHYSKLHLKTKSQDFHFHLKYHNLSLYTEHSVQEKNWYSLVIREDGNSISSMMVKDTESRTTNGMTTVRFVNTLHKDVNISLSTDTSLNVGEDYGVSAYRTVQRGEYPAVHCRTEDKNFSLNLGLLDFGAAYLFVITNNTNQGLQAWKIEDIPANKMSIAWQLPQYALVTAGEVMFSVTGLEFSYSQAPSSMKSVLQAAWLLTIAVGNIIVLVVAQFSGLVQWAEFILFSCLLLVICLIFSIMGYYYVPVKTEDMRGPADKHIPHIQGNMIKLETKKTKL
As to the kind of experiment: Electrogenic transport in Xenopus oocytes expressing hPEPT2. The data set is classed as cell-based. To be noted: test compound 1 mM, relative to Gly-Sar. The source says:
(§1) RNA preparation: Rat and human PEPT1 and PEPT2 transporter cDNAs were subcloned into a modified pGEM plasmid that contains 5′ and 3′ untranslated sequences from the Xenopus β-actin gene. These sequences increase RNA stability and protein expression. Plasmid cDNA was linearized and used as template for in vitro transcription (Epicentre Technologies transcription kit, 4:1 methylated:non-methylated GTP).
(§2) Xenopus oocyte isolation. Xenopus laevis frogs were anesthetized by immersion in Tricaine ([…] in deionized water) for 15 min. Oocytes were removed and digested in frog ringer solution (90 mM NaCl, 2 mM KCl, 1 mM MgCl2, 10 mM NaHEPES, pH 7.45, no CaCl2) with 1 mg/mL collagenase (Worthington Type 3) for 80-100 min with shaking. The oocytes were washed 6 times, and the buffer changed to frog ringer solution containing CaCl2 (1.8 mM). Remaining follicle cells were removed if necessary. Cells were incubated at 16° C., and each oocyte injected with […] RNA in […] solution.
(§3) Electrophysiology measurements. Transport currents were measured 2-14 days after injection, using a standard two-electrode electrophysiology set-up (Geneclamp 500 amplifier, Digidata 1320/PCLAMP software and ADInstruments hardware and software were used for signal acquisition). Electrodes ([…]) were microfabricated using a Sutter Instrument puller and filled with 3M KCl. The bath was directly grounded (transporter currents were less than 0.3 μA). Bath flow was controlled by an automated perfusion system (ALA Scientific Instruments, solenoid valves).
(§4) For transporter pharmacology, oocytes were clamped at −60 to −90 mV, and continuous current measurements acquired using PowerLab Software and an ADInstruments digitizer. Current signals were lowpass filtered at 20 Hz and acquired at 4-8 Hz. All bath and drug-containing solutions were frog ringers solution containing CaCl2. Drugs were applied for 10-30 seconds until the induced current reached a new steady-state level, followed by a control solution until baseline currents returned to levels that preceded drug application. The difference current (baseline subtracted from peak current during drug application) reflected the net movement of charge resulting from electrogenic transport and was directly proportional to tranport rate. Recordings were made from a single oocyte for up to 60 min, enabling 30-40 separate compounds to be tested per oocyte. […] To compare results between oocytes expressing different levels of transport activity, a saturating concentration of glycyl-sarcosine (1 mM) was used as a common reference to normalize results from test compounds. Using this normalization procedure Vmax (i.e. maximal induced current) for different compounds tested on different oocytes could be compared.

The target in another data set is T2, hPEPT1 (Homo sapiens, UniProt P46059).
T2 sequence (P46059 1-708): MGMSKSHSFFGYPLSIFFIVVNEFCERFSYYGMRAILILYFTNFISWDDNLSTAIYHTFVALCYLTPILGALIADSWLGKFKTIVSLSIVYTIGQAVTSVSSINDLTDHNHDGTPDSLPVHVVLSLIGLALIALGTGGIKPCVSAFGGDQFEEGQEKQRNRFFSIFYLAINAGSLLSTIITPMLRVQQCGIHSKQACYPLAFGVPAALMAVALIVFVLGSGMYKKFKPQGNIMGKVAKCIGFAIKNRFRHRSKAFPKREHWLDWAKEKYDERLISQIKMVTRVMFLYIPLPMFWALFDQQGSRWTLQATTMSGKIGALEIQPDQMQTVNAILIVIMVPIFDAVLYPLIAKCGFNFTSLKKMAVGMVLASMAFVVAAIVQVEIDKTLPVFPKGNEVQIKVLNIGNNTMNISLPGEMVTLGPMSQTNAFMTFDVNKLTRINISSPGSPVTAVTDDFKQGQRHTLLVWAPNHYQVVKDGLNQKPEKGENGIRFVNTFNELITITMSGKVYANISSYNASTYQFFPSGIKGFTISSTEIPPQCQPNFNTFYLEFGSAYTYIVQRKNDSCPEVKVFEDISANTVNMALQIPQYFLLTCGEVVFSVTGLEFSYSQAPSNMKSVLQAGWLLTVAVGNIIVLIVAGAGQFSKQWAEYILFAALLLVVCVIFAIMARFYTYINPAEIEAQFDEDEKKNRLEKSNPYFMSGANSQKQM
As to the kind of experiment: Electrogenic transport in Xenopus oocytes expressing hPEPT1. It is filed as cell-based. The conditions noted are these: for % Max. (Gly-Sar): hPEPT1-expressing oocytes, test compound 1 mM, relative to Gly-Sar; for transport by hPEPT1 (in words): summary of Example 34.
Source text: as §1, §2, §3, §4

The target of data set [1] is T3, IBAT (Homo sapiens, UniProt Q12908). As to the kind of experiment: Electrogenic transport in Xenopus oocytes expressing IBAT. It is filed as cell-based. To be noted: for % Max. (GDC): relative to glycodeoxycholate.
Source text: RNA preparation: Human IBAT and LBAT Transporter cDNAs were subcloned into a modified pGEM plasmid that contains 5′ and 3′ untranslated sequences from the Xenopus β-actin gene. These sequences increase RNA stability and protein expression. Plasmid cDNA was linearized and used as template for in vitro transcription (Epicentre Technologies transcription kit, 4:1 methylated:non-methylated GTP).
as §2, §3
For transporter pharmacology, oocytes were clamped at −60 to −90 mV, and continuous current measurements acquired using PowerLab Software and an ADInstruments digitizer. Current signals were lowpass filtered at 20 Hz and acquired at 4-8 Hz. All bath and drug-containing solutions were frog ringers solution containing CaCl2. Drugs were applied for 10-30 seconds until the induced current reached a new steady-state level, followed by a control solution until baseline currents returned to levels that preceded drug application. The difference current (baseline subtracted from peak current during drug application) reflected the net movement of charge resulting from electrogenic transport and was directly proportional to tranport rate. Recordings were made from a single oocyte for up to 60 min, enabling 30-40 separate compounds to be tested per oocyte. […]. Using this normalization procedure Vmax (i.e. maximal induced current) for different compounds tested on different oocytes could be compared.

Data set [2] concerns the target T3, IBAT. As to the kind of experiment: Inhibition of radiolabeled taurocholate uptake in IBAT-transfected CHO cells. It is filed as cell-based. On the set-up: expressed in transfected cells; host or cells: CHO cells. The conditions noted are these: radiolabeled competition assay in transporter-expressing CHO cells. On the procedure:
(§5) CHO cells transfected with either the IBAT or LBAT transporter were seeded into 96-well microtiter plates at 100,000 cells/well in 100 μL DMEM containing 10% serum, glutamine and Penstrep. After overnight incubation the media was removed and test compound (25 μL) added at 2× the final desired concentration. Tritiated taurocholate (50,000 CPM/well) was diluted with cold substrate to a final concentration of 5 μM and 25 μL/well of this mixture was added to the plate. After incubating for 1 h at room temperature the solution was removed and the plate washed 4× with PBS at 4° C. 200 μL/well of scintillant is added and the plate then read in a Wallac microbeta counter. The inhibition data is processed by standard methods to calculate an inhibition constant Ki for the test compound.

The next data set has as its target T4, LBAT (Homo sapiens, UniProt Q14973).
T4 construct: expressed in transfected cells; host or cells: CHO cells
As to the kind of experiment: Inhibition of radiolabeled taurocholate uptake in LBAT-transfected CHO cells. The data set is classed as cell-based. The conditions noted are these: radiolabeled competition assay in transporter-expressing CHO cells. On the procedure:
as §5

Data set [3] in a line: Pharmacokinetics in rats following oral administration (Examples 38 and 40). To be noted: male, Sprague-Dawley, rat, in vivo, 25 mg/kg. On the procedure:
(§6) The pharmacokinetics of the prodrug (4) were examined in rats. Three groups of four male Sprague-Dawley rats (approx 200 g) with jugular cannulae each received one of the following treatments: A) a single bolus intravenous injection of gabapentin (25 mg/kg, as a solution in water); B) a single oral dose of gabapentin (25 mg/kg, as a solution in water) administered by oral gavage; C) a single oral dose of (4) (85.25 mg/kg, as a solution in water) administered by oral gavage. Animals were fasted overnight prior to dosing and until 4 hours post-dosing. Serial blood samples were obtained over 24 hours following dosing and blood was processed for plasma by centrifugation. Plasma samples were stored at −80° C. until analyzed. Concentrations of (4) or gabapentin in plasma samples were determined by LC/MS/MS as described in Example 35. Plasma (50 μL) was precipitated by addition of […] of methanol and supernatent was injected directly onto the LC/MS/MS system. The method was linear for gabapentin over the concentration range 0.001 to 20 ng/mL and for (4) over the concentration range 0.01 to 10 ng/mL.
as §6, with “prodrug Cholyl-Phe-Gabapentin (7g)” for “prodrug (4)”, “of (7g) (103.5” for “of (4) (85.25”, “of (7g)” for “of (4)”, “or (2)” for “or gabapentin”, “described above.” for “described in Example 35.”, “system.” for “system. The method was linear for gabapentin over the concentration range 0.001 to 20 ng/mL and for (4) over the concentration range 0.01 to 10 ng/mL.”

Square brackets hold non-standard residues; d marks the D form. Peptide text beside a SMILES is read from it. * marks the point of attachment. Bn = c1ccc(C*)cc1

T3 sequence (Q12908 whole entry): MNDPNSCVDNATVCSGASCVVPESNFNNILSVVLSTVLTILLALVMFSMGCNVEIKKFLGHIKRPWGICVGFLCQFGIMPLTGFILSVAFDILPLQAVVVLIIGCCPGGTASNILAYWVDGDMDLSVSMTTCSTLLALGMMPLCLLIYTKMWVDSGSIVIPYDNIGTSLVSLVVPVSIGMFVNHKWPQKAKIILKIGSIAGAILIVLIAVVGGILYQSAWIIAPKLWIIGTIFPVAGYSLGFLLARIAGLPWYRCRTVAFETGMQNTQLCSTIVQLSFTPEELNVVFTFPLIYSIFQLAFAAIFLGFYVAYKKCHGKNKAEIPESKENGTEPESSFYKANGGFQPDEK
T4 sequence (Q14973 whole entry): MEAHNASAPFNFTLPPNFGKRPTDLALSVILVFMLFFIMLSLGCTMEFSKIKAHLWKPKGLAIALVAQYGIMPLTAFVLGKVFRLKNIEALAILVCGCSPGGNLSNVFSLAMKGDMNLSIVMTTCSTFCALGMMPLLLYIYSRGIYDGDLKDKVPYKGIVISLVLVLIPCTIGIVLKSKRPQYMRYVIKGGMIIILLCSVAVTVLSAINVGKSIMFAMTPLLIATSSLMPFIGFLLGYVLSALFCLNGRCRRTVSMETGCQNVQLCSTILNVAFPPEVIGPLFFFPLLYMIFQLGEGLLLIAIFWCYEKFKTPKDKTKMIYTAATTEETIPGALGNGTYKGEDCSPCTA

As for `N[C@@H](CC(=O)O)C(=O)N[C@H](COCc1ccccc1)C(=O)O` [(37), H-Asp-D-Ser(Bzl)-OH] (H-Asp-[dS](Bn)-OH), the entries for the “% Max. (Gly-Sar)” value on hPEPT2 and at hPEPT1 were 0% and 1%, respectively.
Taken in the same sequence, the figures for `N[C@@H](CCC(=O)O)C(=O)N[C@H](COCc1ccccc1)C(=O)O` [(35), H-Glu-D-Ser(Bzl)-OH] (H-Glu-[dS](Bn)-OH) were 0% and 1%.
Take `C[C@H](CCC(=O)N[C@@H](Cc1ccc2oc(=O)oc2c1)C(=O)O)[C@H]1CC[C@H]2[C@@H]3[C@H](O)C[C@@H]4C[C@H](O)CC[C@]4(C)[C@H]3C[C@H](O)[C@]12C` [(23), Cholyl-Dopa-(3,4-carbonate)]: the “% Max. (GDC)” value at IBAT [1] was found to be 25%. Further, the IC50 at IBAT [2] came to 74 µM; on LBAT it was 1.8 µM.
`N[C@@H](CCC(=O)O)C(=O)N[C@H](CSCc1ccccc1)C(=O)O` [(34), H-Glu-D-Cys(Bzl)-OH] (H-Glu-[dC](Bn)-OH): the “% Max. (Gly-Sar)” value on hPEPT2 is given as 0%; at hPEPT1, 1%.
For the compound `CC(CCC(=O)NC(Cc1ccccc1)C(=O)NCC1(CC(=O)O)CCCCC1)C1CCC2C3C(O)CC4CC(O)CCC4(C)C3CC(O)C12C` (stereo not shown) [(7g), Cholyl-Phe-Gabapentin], on IBAT [1], the half-maximal effective concentration (EC50) was found to be 140 µM and the “% Max. (GDC)” value came out at 28%. Further, the IC50 at IBAT [2] was determined as 92 µM. Besides, at LBAT, the half-inhibitory concentration (IC50) is 0.5 µM.
Consider `N[C@@H](CCC(=O)O)C(=O)N[C@@H](CSCc1ccccc1)C(=O)O` [(27), H-Glu-Cys(Bzl)-OH] (H-Glu-Cys(Bn)-OH), for which, on hPEPT2, the “% Max. (Gly-Sar)” value turned out to be 56%. Besides, at hPEPT1, the “% Max. (Gly-Sar)” value stood at 41% and the “transport by hPEPT1 (in words)” value was “efficient substrates”.
On the same counts, the results for `N[C@@H](CC(=O)O)C(=O)N[C@@H](CSCc1ccccc1)C(=O)O` [(30), H-Asp-Cys(Bzl)-OH] (H-Asp-Cys(Bn)-OH) are 78%, 55% and “efficient substrates”.
Take `CC(CCC(=O)NCC(=O)NCC1(CC(=O)O)CCCCC1)C1CCC2C3C(O)CC4CC(O)CCC4(C)C3CC(O)C12C` (stereo not shown) [(7a), Cholyl-Gly-Gabapentin]: at IBAT [1], the “% Max. (GDC)” value was 67%.
As to `N[C@@H](CCC(=O)O)C(=O)N[C@@H](COCc1ccccc1)C(=O)O` [(28), H-Glu-Ser(Bzl)-OH] (H-Glu-Ser(Bn)-OH), the “% Max. (Gly-Sar)” value on hPEPT2 is recorded as 82%; on hPEPT1, 58%. The “transport by hPEPT1 (in words)” value on hPEPT1 is “efficient substrates”.
Regarding `N[C@@H](CC(=O)O)C(=O)N[C@H](CSCc1ccccc1)C(=O)O` [(36), H-Asp-D-Cys(Bzl)-OH] (H-Asp-[dC](Bn)-OH), the “% Max. (Gly-Sar)” value at hPEPT2 came out at 0%; at hPEPT1, 2%.
`Cl.NCC1(CC(=O)O)CCCCC1` [gabapentin, 1-aminomethyl-1-cyclohexaneacetic acid hydrochloride, reference compound] registered a bioavailability in data set [3] of 87 ± 18%. In addition, in data set [3] (po), the time to peak (Tmax) was 2.8 ± 2.5 h and the half-life is 2.4 ± 0.5 h.

(Values after US20050054559A1, “Compounds for sustained release of orally delivered drugs” (priority 2000, published 2005).)
